Key:
[1] = system: MCF-7 breast cancer cells; experiment: MTT cytotoxicity assay, MCF-7; format: cell-based, human; conditions: Homo sapiens, MCF7; MTT, 72 h, n = 3; read-out: IC50 MCF-7 (Breast)
Procedure: (§1) The synthesized derivatives were screened for their cytotoxic activities against five cancer cell lines (two breast cancer cell lines: MCF-7 and MDA-MB-231, two ovarian cancer cell lines: A2780 and KF-28, and one cervical cancer cell line: Hela). This study was performed using serial concentrations of 25, 50, 100, 150, and 200 µM of each compound using the MTT assay. Percentages of cell viability of the tested compounds with serial concentration against the tested panel of cell lines are depicted in Figure 1, in which there is a decrease in the cell viability with increasing concentrations in a dose–response pattern. […] Therefore, compounds 5a, 5b, and 5f were thought worthwhile to further investigate their effects as either cytotoxic or antiproliferative effects and whether any of them is an inducer of apoptotic cell death in the representative cancer cell lines KF-28 and A2780.
(§2) The human ovarian serous carcinoma cell line KF-28 was kindly provided by Prof. Yoshihiro Kikuchi (Department of Obstetrics and Gynecology, National Defense Medical College, Saitama, Japan), and A2780 cell line was purchased from the ECACC (ECACC 93112519). The cells were maintained in RPMI-1640 (Sigma-Aldrich, United States). The cervical cancer cell line, Hela cells, breast cancer cell line, MCF-7, and MDA-MB-231 were purchased from the ATCC and cultured in DMEM. Both types of media were supplemented with 2 mM L-glutamine (Lonza, Belgium), 10% FBS (Sigma, St. Louis, MO, United States), and 1% penicillin/streptomycin (Lonza, Belgium). All cells were incubated at 37°C in 5% CO2 atmosphere (NuAire). All cancer cell lines were cultured according to the routine tissue culture work as discussed by the Freshney group ([Freshney, 2010]). The cells were plated at a density of 5,000 cells in triplicates in a 96-well plate. On the next day, the cells were treated with the indicated compound(s) at the indicated concentrations in a final volume of 100 μL media. Cell viability was assessed after 72 h using MTT solution (Promega) ([Mosmann, 1983]). 20 μL of the reagent was added to each well, the plate was incubated for 3 h, […] was subsequently measured (570 nm) using a plate reader, and then the IC50 values were calculated using Excel ([Tantawy et al., 2020]).

[2] = system: MEF normal mouse embryonic fibroblast; experiment: MTT cytotoxicity assay, MEF; format: cell-based; conditions: n = 3
[3] = system: A2780 ovarian cancer cells; experiment: MTT cytotoxicity assay, A2780; format: cell-based, human; conditions: Homo sapiens, A2780; MTT, 72 h, n = 3; read-out: IC50 A2780 (Ovarian)
Procedure: as §1, §2

[4] = system: Hela cervical cancer cells; experiment: MTT cytotoxicity assay, Hela; format: cell-based; conditions: Homo sapiens, MTT, 72 h, n = 3, read-out: IC50 Hela (Cervical)
Procedure: as §1, §2

[5] = system: KF-28 ovarian cancer cells; experiment: MTT cytotoxicity assay, KF-28; format: cell-based, human; conditions: Homo sapiens; MTT, 72 h, n = 3; read-out: IC50 KF-28 (Ovarian)
Procedure: as §1, §2

KF-28 cells [6] = experiment: Quantitative RT-PCR of apoptosis-related genes; format: cell-based, human; conditions: 48 h
Procedure: Next, we investigated the pathway through which apoptosis is induced by compounds 5a, 5b, and 5f in KF-28 cells. For that purpose, after treating cells with each compound, RNA was extracted, cDNA was synthesized, and RT-PCR was performed to quantify the mRNA expression of pro-apoptotic genes (p53, bax, puma), caspases 3, 8 9, anti-apoptotic gene (Bcl-2), and Pim-1 kinase genes in KF-28 cells.
The cells were grown in 10 cm^2 culture dishes to a monolayer with a confluence of 90% in triplicates. After different treatments, the cells were washed twice with PBS and then pelleted by centrifugation for 5 min at 1800 rpm at 4°C. The cells were lysed by Trizol reagent (Invitrogen), and then total RNA was purified with the phenol/chloroform extraction method. Concentration and purity of RNA samples were measured using NanoDrop. The RNA purity was assessed as OD260/OD230 (≥1.5) using NanoDrop. gDNA was eliminated by DNase. The RNA from three biological samples was then pooled for mRNA analysis, cDNA was synthesized using the iScript kit (Bio-Rad, United States) according to the manufacturer’s recommendation, and RT-PCRs consisted of 8.34 µL Fluocycle® II SYBR® (Euroclone, Milan, Italy), 0.5 µL of both 10 µM forward and reverse primers, 1 µL cDNA, and 6.34 µL of H2O. All reactions were performed for 35 cycles using the following temperature profile: 95°C for 5 min (initial denaturation), 95°C for […] (denaturation), 55°C for […] (annealing), and 72°C for […] (extension) ([Nafie et al., 2020a]; [Sarhan et al., 2020]). Then, the Ct values were collected, with the folds of changes between all the samples.

KF-28 cells [7] = experiment: DNA content and cell cycle analysis (PI, flow cytometry); format: cell-based, human; conditions: 200 µM, 48 h; for Cell cycle phase G1 population: DMSO control 72%
Procedure: Studying the cell cycle phases by measuring DNA content is a crucial test that helps in evaluating the impact of a given drug(s) on dividing cells and may reflect the mechanism through which this drug(s) affects those cells. […] Compounds 5a, 5b, 5c, 5f, 5g, and 9 were added to similar numbers of cells at 200 µM for 48 h, and then, the different cell cycle phases were assessed by flow cytometric analysis.
The cells were seeded into six-well culture plates (3–5 × 10^5 cells/well) and incubated overnight at 37°C, under 5% CO2. The cells were then treated with indicated compounds for 48 h. Next, media supernatants and the cells were collected and washed with ice-cold PBS. Next, the cells were stained with PI (10 mg/ml) for 30 min and analyzed for DNA contents using flow cytometry analysis using an FL2 (λex/em 535/617 nm) signal detector (ACEA Novocyte™ flow cytometer, ACEA Biosciences, Inc., San Diego, CA, United States). For each sample, 12,000 events are acquired. Cell cycle distribution is calculated using a CytoFLex machine and analyzed by CytExpert software. Flow cytometric methodologies (annexin V/PI staining with cell cycle analyses) are carried out as previously described ([Nafie et al., 2020a]; [Nafie et al., 2020b]; [Gad et al., 2020]).

SMILES	IC50 [1]	IC50 [2]	IC50 [3]	IC50 [4]	IC50 [5]	Bcl-2 expression, maximum decrease (KF-28 cells [6])	Pim-1 kinase expression, maximum decrease (KF-28 cells [6])	bax mRNA level, maximum increase (KF-28 cells [6])	caspase 3 mRNA level, maximum increase (KF-28 cells [6])	caspase 9 mRNA level, maximum increase (KF-28 cells [6])	p53 mRNA relative expression (KF-28 cells [6])	puma mRNA level, maximum increase (KF-28 cells [6])	Cell cycle phase S population (KF-28 cells [7])	Cell cycle phase G1 population (KF-28 cells [7])	caspase 8 mRNA level, maximum increase (KF-28 cells [6])
Cc1[nH]c(=NN=C2CCC(=NN=c3[nH]c(C)c(N=Nc4ccccc4)s3)CC2)sc1N=Nc1ccccc1 [5a, 1,4-Bis((5-phenylazo-4-methylthiazol-2-ylidene)hydrazono)cyclohexane]	> 200 µM	7.08 µM	77.9 µM	> 200 µM	< 25 µM	≈ 0.5 fold	≈ 0.31 fold	~5.2 fold	≈ 6.2 fold	~5.6 fold	≈ 4.07 fold	≈ 5.08 fold	11.4%	75.9%	
Cc1ccc(N=Nc2sc(=NN=C3CCC(=NN=c4[nH]c(C)c(N=Nc5ccc(C)cc5)s4)CC3)[nH]c2C)cc1 [5b, 1,4-Bis((5-(4-tolylazo)-4-methylthiazol-2-ylidene)hydrazono)cyclohexane]	> 200 µM	2.34 µM	94.4 µM	> 200 µM	< 25 µM			~3.33 fold			≈ 3.41 fold	≈ 4.14 fold	4.5%	85.6%	
Cc1[nH]c(=NN=C2CCC(=NN=c3[nH]c(C)c(N=Nc4ccccc4Cl)s3)CC2)sc1N=Nc1ccccc1Cl [5f, 1,4-Bis((5-(2-chlorophenylazo)-4-methylthiazol-2-ylidene)hydrazono)cyclohexane]	> 200 µM	> 200 µM	< 25 µM	> 200 µM	< 25 µM	≈ 0.76 fold	≈ 0.86 fold	~2.33 fold	≈ 6.9 fold	~6.0 fold	≈ 3.81 fold	≈ 3.14 fold		76.9%	~5.5 fold

— publication PMC8397418, “Novel Bis-Thiazole Derivatives: Synthesis and Potential Cytotoxic Activity Through Apoptosis With Molecular Docking Approaches” (Frontiers in Chemistry, 2021)
